“Also recorded” adds a separate entry of the source. No end group written: not given here.

The source of these data is publication PMC10325900, “A conserved motif in the disordered linker of human MLH1 is vital for DNA mismatch repair and its function is diminished by a cancer family mutation” (Nucleic Acids Research, 2023).

The target in this assay is T1, MLH1-ΔConMot-PMS2 (Homo sapiens, UniProt P40692+P54278, DEL377-396).
T1 construct: The pcDNA3 expression vector containing the entire open reading frame of human MLH1; expressed in transfected cells; host or cells: HEK293T (MLH1-deficient), transiently co-transfected
T1 sequence (P40692 with tags, fused parts or gaps DEL377-396): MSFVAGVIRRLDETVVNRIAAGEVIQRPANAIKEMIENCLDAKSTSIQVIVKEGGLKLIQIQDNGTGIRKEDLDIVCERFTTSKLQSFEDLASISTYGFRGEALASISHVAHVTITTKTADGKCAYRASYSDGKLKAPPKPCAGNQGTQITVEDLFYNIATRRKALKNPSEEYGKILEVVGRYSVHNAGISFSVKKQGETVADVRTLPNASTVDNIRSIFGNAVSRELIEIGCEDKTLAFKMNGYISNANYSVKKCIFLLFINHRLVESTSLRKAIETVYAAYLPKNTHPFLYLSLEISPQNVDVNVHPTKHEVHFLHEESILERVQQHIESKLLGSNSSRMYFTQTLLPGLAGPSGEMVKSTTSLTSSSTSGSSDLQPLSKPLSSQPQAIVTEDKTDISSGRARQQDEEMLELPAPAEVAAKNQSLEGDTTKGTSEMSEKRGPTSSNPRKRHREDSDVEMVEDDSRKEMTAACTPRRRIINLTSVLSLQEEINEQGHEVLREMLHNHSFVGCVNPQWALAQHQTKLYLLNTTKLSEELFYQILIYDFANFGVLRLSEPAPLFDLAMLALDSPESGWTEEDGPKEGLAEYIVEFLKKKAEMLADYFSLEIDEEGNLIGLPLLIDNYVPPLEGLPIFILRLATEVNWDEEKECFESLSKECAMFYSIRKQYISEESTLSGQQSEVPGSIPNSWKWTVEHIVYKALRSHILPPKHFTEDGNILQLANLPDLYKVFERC
T1 sequence (P54278 1-862 partner): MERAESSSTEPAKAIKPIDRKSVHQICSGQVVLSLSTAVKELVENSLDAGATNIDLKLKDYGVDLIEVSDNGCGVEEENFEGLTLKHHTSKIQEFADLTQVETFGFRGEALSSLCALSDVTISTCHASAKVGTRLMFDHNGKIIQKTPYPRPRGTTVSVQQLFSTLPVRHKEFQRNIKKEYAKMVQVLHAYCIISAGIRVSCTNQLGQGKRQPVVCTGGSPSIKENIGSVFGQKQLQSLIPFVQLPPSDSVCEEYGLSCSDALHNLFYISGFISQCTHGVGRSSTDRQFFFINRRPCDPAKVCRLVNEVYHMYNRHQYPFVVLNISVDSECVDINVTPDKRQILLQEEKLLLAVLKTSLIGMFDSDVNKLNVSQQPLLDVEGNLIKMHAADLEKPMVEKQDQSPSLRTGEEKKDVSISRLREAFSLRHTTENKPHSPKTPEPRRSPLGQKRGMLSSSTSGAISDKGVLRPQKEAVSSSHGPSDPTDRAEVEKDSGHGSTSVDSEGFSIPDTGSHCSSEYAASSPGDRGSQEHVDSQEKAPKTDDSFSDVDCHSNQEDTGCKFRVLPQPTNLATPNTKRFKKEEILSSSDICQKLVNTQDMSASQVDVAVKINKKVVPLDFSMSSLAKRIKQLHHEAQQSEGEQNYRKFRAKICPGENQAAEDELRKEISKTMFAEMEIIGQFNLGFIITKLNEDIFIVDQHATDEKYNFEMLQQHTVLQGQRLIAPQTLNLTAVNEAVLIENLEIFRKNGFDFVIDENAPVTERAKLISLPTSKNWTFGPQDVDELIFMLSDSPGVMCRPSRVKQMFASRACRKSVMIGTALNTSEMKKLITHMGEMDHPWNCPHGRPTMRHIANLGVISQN
Put plainly: DNA mismatch repair (MMR) complementation assay with peptide, MLH1-ΔConMot variant. Type of assay: biochemical. Here is the method:
Mismatch repair activity was assessed as described in detail before ([79],[81]) (Supplementary Figure S3). […] Mismatched DNA plasmid substrate (Supplementary Figure S3) prepared according to previously published procedures ([81–83]) was added, and reactions in a final volume of 25 μl were incubated at 37°C for 15 min. Repair efficiency was scored by purifying the mismatched DNA plasmid from the reaction and assessing the fraction of homoduplex sequence by restriction digestion of the mismatched site using EcoRV. The substrate was additionally linearized with AseI.
For complementation assays with peptide, the indicated peptide(s) were used at stock concentrations of 50 or 500 μM in HEPES–KOH 20 mM pH 7.6 and supplemented to the MMR reactions.
Figure 4. Reaction of DNA mismatch repair to addition of ConMot peptide. (A) Nuclear extract of MLH1-proficient HEK293 cells was used for performing the DNA mismatch repair reaction. Four reactions were undertaken, with two reactions supplemented with either 7.5 μM or 75 μM ConMot-32 peptide. A negative control reaction was performed by omitting the 37°C repair incubation. (B) MMR reactions were performed with nuclear extract of MLH1-deficient HEK293T cells supplemented with extract of cells transfected either with wildtype MLH1-PMS2 (positive control) or with MLH1-ΔConMot-PMS2. To these MMR reactions, different peptides were added at a concentration of 75 μM: A ConMot-32 peptide (A), a Scramble-32 peptide (B) in which the conserved ConMot sequence is scrambled, and a short ConMot-20 peptide (C) that only contains the twenty highly conserved ConMot residues. The peptide sequences are given below the gel image. (C) The concentration-dependence of the MMR-activating effect of the ConMot-32 peptide observed in (B) was measured over a concentration range from 1–75 μM. (D) Theoretical binding curves of a ligand (peptide) to a protein were calculated for dissociation constants (KD) of 1, 5 and 10 μM for a protein concentration as present for MLH1-PMS2 in the MMR assay reactions (see also Supplementary Figure S3). Into this diagram, the average MMR activities (and standard deviations) measured in >3 of the experiment exemplarily shown in C were introduced as bars at ConMot-32 peptide concentrations of 1, 2.5, 7.5, 18 and 75 μM.
Second, we used extract of the repair-deficient cell line HEK293T supplemented with either wildtype MutLα (MLH1-PMS2) or the ΔConMot deletion variant, corresponding to experiment shown in Figure 2B. In this experiment, we again added ConMot peptide.
We investigated the effect of the ConMot peptide more closely by titrating the required peptide concentrations for activation. We determined that the mismatch repair reactions performed in this study contained approximately 280 fmol MLH1 (Supplementary Figure S4A and B), which is in good agreement with previous quantifications of MLH1-PMS2 in cells and extracts ([96]). […] Dissociation constants (KD) for peptides to proteins are typically in the range of 1–10 μM ([97]). We compared the measured concentration-dependent MMR activities with theoretical binding curves of (peptide) ligands to (protein) substrates for KD values of 1, 5 and 10 μM (Supplementary Figure S4C) at the determined MLH1 concentration. […] It is therefore plausible that a binding reaction of the ConMot peptide (to a protein) underlies the restauration of MMR activity. […]
Deletion C on M ot (∆Co nMot) c.1129_1188del CTGCAGCCTCTGAGCAAA […]
Del et i on comp are (∆Compare) c.1221_1280del […] ACTGGACAGGGGTTTGCT
Scramble c.1147_1160delinsGAC ggtacgtTCCCGGGAACAGAAGCT atagtgtcCTGGTGGGCATAGACCT
p.(M383_D387delinsDTMVR) ACTATGGTAC G T TATC
ConMot hy bri d gcataTCTGCAGCCTCTGAGCAA acagg[…]
Supplementary Table 1: Analyzed variant inf ormation.
Variant descriptions confer to HGVS format and refer to the MLH1 reference cDNA (NM_000249.4) […]

[1] abbreviates: ConMot-32, concentration range 1–75 μM, approximately 280 fmol MLH1 (11.1 nM), 37°C, 15 min, >3 experiments.

For “SGSSDKVYAHQMVRTDSREQKLDAFLQPLSKP [ConMot-32]”, under setting [1], the “peptide concentration at which almost complete activation was achieved (MMR)” value is 75 µM and the “peptide concentration at which increase in MMR activity became detectable” value worked out at 1 µM. The EC50 (ConMot-32, concentration range 1–75 μM, approximately 280 fmol MLH1 (11.1 nM), 37°C, 15 min, >3 experiments, read-out: peptide concentration at which 50% activation was achieved (MMR)) turned out to be 7.5 µM. In addition, the “effect of peptide on MMR (summary in Supplementary Table 2)” value (molar ratio 0-860-2300-8600 to hMLH1-PMS2, Tris-HCl pH 7.5, 5 mM Mg2+, 1.5 mM ATP) is recorded as “activating”. Further, for the setting “peptide 75 μM (Figure 4B), HEK293T nuclear extract 50 μg + 5 μg transfected extract, 25 μl, 37°C, 15 min, EcoRV/AseI digestion, agarose gel, listed as ConMot-peptide”, the “restoration of DNA mismatch repair activity of the ΔConMot variant” value is “could be overcome; also recorded: possible to overcome the MMR-deficiency”.
